Holding throughout (assay type): cell-based
One experiment addresses T1, GIP-R (Homo sapiens, UniProt P48546).
T1 sequence (P48546 22-466): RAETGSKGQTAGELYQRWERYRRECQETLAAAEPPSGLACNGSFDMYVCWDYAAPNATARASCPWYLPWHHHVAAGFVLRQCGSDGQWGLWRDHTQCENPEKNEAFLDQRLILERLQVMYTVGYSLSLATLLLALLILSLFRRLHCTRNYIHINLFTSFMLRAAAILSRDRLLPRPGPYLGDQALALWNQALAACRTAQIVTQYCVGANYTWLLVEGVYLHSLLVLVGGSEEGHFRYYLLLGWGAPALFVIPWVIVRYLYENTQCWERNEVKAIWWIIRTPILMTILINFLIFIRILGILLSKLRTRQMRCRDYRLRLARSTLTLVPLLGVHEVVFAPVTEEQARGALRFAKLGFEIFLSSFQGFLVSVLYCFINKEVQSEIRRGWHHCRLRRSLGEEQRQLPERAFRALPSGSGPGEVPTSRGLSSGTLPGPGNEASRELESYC
Kind of experiment: HitHunter cAMP assay (GIP-R). To be noted: cAMP; for Emax: read-out: (Emax) GIP-R. The procedure, abridged: (§1)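 Suspension cells expressing each receptor (10,000 per well) in HBSS with 10 mM HEPES, 625 μM IBMX and 0.2% BSA were treated with a 22-point 2-fold agonist series in duplicate for 30 minutes at room temperature. cAMP was detected by antibody immunocompetition with luminescence read after overnight incubation.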

Experiment [1] deals with T2, GLP-1R (Homo sapiens, UniProt P43220). Briefly: HitHunter cAMP assay (GLP-1R). The note with it: cAMP; for Emax: read-out: (Emax) GLP-1R. The procedure, abridged:
as §1
In general terms: Changes in cAMP serve as a functional read-out for many G protein-coupled receptors.

The target of experiment [2] is T2, GLP-1R. Kind of experiment: PathHunter β-arrestin assay. The procedure, abridged: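 Cells seeded overnight, then medium replaced with medium containing 0.2% BSA; agonists added as 22-point 2-fold DMSO dilution series in duplicate and incubated 90 min at 37 °C, 5% CO2. After addition of detection solution, plates sat 3 h at room temperature in the dark; luminescence read.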

[3] abbreviates: Table 3, read-out: EC50 GIP-R/nM.
Where [4] appears, read: Table 3A, read-out: EC50 GIP-R/nM.
The mark [5] stands for this setting: Table 3, read-out: EC50 GLP-1R/nM.
Where [6] appears, read: Table 3A, read-out: EC50 GLP-1R/nM.
Setting [7] is: PathHunter β-arrestin assay, read-out: β-arrestin activity EC50.

A word on the Emax: it is the size of the effect at its maximum, as opposed to the concentration needed.

Like-named read-outs stand apart in the source and are kept apart here. Numbered stars: 1 amine (or outer) side, 2 acyl side, 3 side chain; on linkers, the order of the positions; unused ones are H or OH. Square brackets hold non-standard residues; d marks the D form. Side chains are listed from the residue outwards. Peptide text beside a SMILES is read from it. * marks the point of attachment. γGlu = O=C(O)[C@H](CCC(=O)[*:2])N[*:1]; X2 = O=C(CSCC(=O)*)NCCN1C(=O)CSC1=O; Palmitoyl = CCCCCCCCCCCCCCCC(=O)*; Aib = CC(C)(N)C(=O)O

T2 sequence (P43220 24-463): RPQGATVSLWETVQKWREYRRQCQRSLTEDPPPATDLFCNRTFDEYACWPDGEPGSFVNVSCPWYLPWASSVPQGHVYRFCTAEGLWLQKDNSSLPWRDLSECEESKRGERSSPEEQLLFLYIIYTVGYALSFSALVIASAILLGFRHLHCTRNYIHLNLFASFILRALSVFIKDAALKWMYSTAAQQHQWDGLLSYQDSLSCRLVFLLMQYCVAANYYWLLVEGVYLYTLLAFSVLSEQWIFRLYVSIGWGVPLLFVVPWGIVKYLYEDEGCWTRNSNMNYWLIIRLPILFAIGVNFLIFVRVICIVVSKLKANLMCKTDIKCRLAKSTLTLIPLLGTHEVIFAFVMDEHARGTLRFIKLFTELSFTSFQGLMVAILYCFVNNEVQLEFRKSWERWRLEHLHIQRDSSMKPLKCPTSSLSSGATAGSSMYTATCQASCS

As to `CC[C@H](C)[C@H](NC(=O)[C@H](CO)NC(=O)[C@H](Cc1ccc(O)cc1)NC(=O)[C@H](CC(=O)O)NC(=O)[C@H](CO)NC(=O)[C@@H](NC(=O)[C@H](Cc1ccccc1)NC(=O)[C@@H](NC(=O)CNC(=O)[C@H](CCC(=O)O)NC(=O)CSCC(=O)NCCN1C(=O)c2cccnc2C1=O)[C@@H](C)O)[C@@H](C)O)C(=O)N[C@@H](Cc1ccc(O)cc1)C(=O)N[C@@H](CC(C)C)C(=O)N[C@@H](CC(=O)O)C(=O)N[C@@H](CCCCN)C(=O)N[C@@H](CCC(N)=O)C(=O)N[C@@H](C)C(=O)N[C@@H](C)C(=O)NC(C)(C)C(=O)N[C@@H](CCC(=O)O)C(=O)N[C@@H](Cc1ccccc1)C(=O)N[C@H](C(=O)N[C@@H](CC(N)=O)C(=O)N[C@@H](Cc1c[nH]c2ccccc12)C(=O)N[C@@H](CC(C)C)C(=O)N[C@@H](CC(C)C)C(=O)N[C@@H](C)C(=O)NCC(=O)NCC(=O)N1CCC[C@H]1C(=O)N[C@@H](CO)C(=O)N[C@@H](CO)C(=O)NCC(=O)N[C@@H](C)C(=O)N1CCC[C@H]1C(=O)N1CCC[C@H]1C(=O)N1CCC[C@H]1C(=O)N[C@@H](CO)C(=O)N[C@@H](CCCCN)C(N)=O)C(C)C` [Compound 160], the EC50 at GIP-R (EC50 GIP-R/nM, Table 3) is 0.1 to 1 nM; on GIP-R (EC50 GIP-R/nM, Table 3A) it was 0.1 to 1 nM; at GLP-1R [1] (EC50 GLP-1R/nM, Table 3) it was 1 to 10 nM; on GLP-1R [1] (EC50 GLP-1R/nM, Table 3A) it was 1 to 10 nM; on GLP-1R [2], more than 1000 nM. Besides, the Emax on GIP-R (Table 3) is 109 to 113%; at GIP-R (Table 3A), 109 to 113%; on GLP-1R [1] (Table 3), 85 to 95%; on GLP-1R [1] (Table 3A), 85 to 95%.
Consider `CCCCCCCCCCCCCCCC(=O)N[C@@H](CCC(=O)NCCCC[C@H](NC(=O)[C@H](CO)NC(=O)[C@@H]1CCCN1C(=O)[C@@H]1CCCN1C(=O)[C@@H]1CCCN1C(=O)[C@H](C)NC(=O)CNC(=O)[C@H](CO)NC(=O)[C@H](CO)NC(=O)[C@@H]1CCCN1C(=O)CNC(=O)CNC(=O)[C@H](C)NC(=O)[C@H](CC(C)C)NC(=O)[C@H](CC(C)C)NC(=O)[C@H](Cc1c[nH]c2ccccc12)NC(=O)[C@H](CC(N)=O)NC(=O)[C@@H](NC(=O)[C@H](Cc1ccccc1)NC(=O)[C@H](CCC(=O)O)NC(=O)C(C)(C)NC(=O)[C@H](C)NC(=O)[C@H](C)NC(=O)[C@H](CCC(N)=O)NC(=O)[C@H](CCCCN)NC(=O)[C@H](CC(=O)O)NC(=O)[C@H](CC(C)C)NC(=O)[C@H](Cc1ccc(O)cc1)NC(=O)[C@@H](NC(=O)[C@H](CO)NC(=O)[C@H](Cc1ccc(O)cc1)NC(=O)[C@H](CC(=O)O)NC(=O)[C@H](CO)NC(=O)[C@@H](NC(=O)[C@H](Cc1ccccc1)NC(=O)[C@@H](NC(=O)CNC(=O)[C@H](CCC(=O)O)NC(=O)CSCC(=O)NCCN1C(=O)CCCC1=O)[C@@H](C)O)[C@@H](C)O)[C@@H](C)CC)C(C)C)C(N)=O)C(=O)O` [Compound 123], for which the EC50 at GIP-R (EC50 GIP-R/nM, Table 3) is 0.1 to 1 nM; at GIP-R (EC50 GIP-R/nM, Table 3A), 0.1 to 1 nM; on GLP-1R [1] (EC50 GLP-1R/nM, Table 3), 1 to 10 nM; on GLP-1R [1] (EC50 GLP-1R/nM, Table 3A), 1 to 10 nM; at GLP-1R [2] it was more than 1000 nM. Moreover, the Emax at GIP-R (Table 3) was found to be 111%; on GIP-R (Table 3A), 111%; at GLP-1R [1] (Table 3) it was 104%; on GLP-1R [1] (Table 3A), 104%.
On to `CCCCCCCCCCCCCCCC(=O)N[C@@H](CCC(=O)NCCCC[C@H](NC(=O)[C@H](CO)NC(=O)[C@@H]1CCCN1C(=O)[C@@H]1CCCN1C(=O)[C@@H]1CCCN1C(=O)[C@H](C)NC(=O)CNC(=O)[C@H](CO)NC(=O)[C@H](CO)NC(=O)[C@@H]1CCCN1C(=O)CNC(=O)CNC(=O)[C@H](C)NC(=O)[C@H](CC(C)C)NC(=O)[C@H](CC(C)C)NC(=O)[C@H](Cc1c[nH]c2ccccc12)NC(=O)[C@H](CC(N)=O)NC(=O)[C@@H](NC(=O)[C@H](Cc1ccccc1)NC(=O)[C@H](CCC(=O)O)NC(=O)C(C)(C)NC(=O)[C@H](C)NC(=O)[C@H](C)NC(=O)[C@H](CCC(N)=O)NC(=O)[C@H](CCCCN)NC(=O)[C@H](CC(=O)O)NC(=O)[C@H](CC(C)C)NC(=O)[C@H](Cc1ccc(O)cc1)NC(=O)[C@@H](NC(=O)[C@H](CO)NC(=O)[C@H](Cc1ccc(O)cc1)NC(=O)[C@H](CC(=O)O)NC(=O)[C@H](CO)NC(=O)[C@@H](NC(=O)[C@H](Cc1ccccc1)NC(=O)[C@@H](NC(=O)CNC(=O)[C@H](CCC(=O)O)NC(=O)CSCC(=O)NCCN1CC[C@@H](OC)C1=O)[C@@H](C)O)[C@@H](C)O)[C@@H](C)CC)C(C)C)C(N)=O)C(=O)O` [Compound 11], for which the EC50 at GIP-R (EC50 GIP-R/nM, Table 3) is 1 to 10 nM; at GIP-R (EC50 GIP-R/nM, Table 3A), 1 to 10 nM; on GLP-1R [1] (EC50 GLP-1R/nM, Table 3), 0.1 to 1 nM; at GLP-1R [1] (EC50 GLP-1R/nM, Table 3A), 0.1 to 1 nM; on GLP-1R [2] it was more than 1000 nM. Also, the Emax on GIP-R (Table 3) was determined as 39%; at GIP-R (Table 3A), 39%; on GLP-1R [1] (Table 3), 96%; on GLP-1R [1] (Table 3A), 96%.
Take `CC[C@H](C)[C@H](NC(=O)[C@H](CO)NC(=O)[C@H](Cc1ccc(O)cc1)NC(=O)[C@H](CC(=O)O)NC(=O)[C@H](CO)NC(=O)[C@@H](NC(=O)[C@H](Cc1ccccc1)NC(=O)[C@@H](NC(=O)CNC(=O)[C@H](CCC(=O)O)NC(=O)[C@H]1CC[C@@H](C(=O)NCCN2C(=O)CSC2=O)CC1)[C@@H](C)O)[C@@H](C)O)C(=O)N[C@@H](Cc1ccc(O)cc1)C(=O)N[C@@H](CC(C)C)C(=O)N[C@@H](CC(=O)O)C(=O)N[C@@H](CCCCN)C(=O)N[C@@H](CCC(N)=O)C(=O)N[C@@H](C)C(=O)N[C@@H](C)C(=O)NC(C)(C)C(=O)N[C@@H](CCC(=O)O)C(=O)N[C@@H](Cc1ccccc1)C(=O)N[C@H](C(=O)N[C@@H](CC(N)=O)C(=O)N[C@@H](Cc1c[nH]c2ccccc12)C(=O)N[C@@H](CC(C)C)C(=O)N[C@@H](CC(C)C)C(=O)N[C@@H](C)C(=O)NCC(=O)NCC(=O)N1CCC[C@H]1C(=O)N[C@@H](CO)C(=O)N[C@@H](CO)C(=O)NCC(=O)N[C@@H](C)C(=O)N1CCC[C@H]1C(=O)N1CCC[C@H]1C(=O)N1CCC[C@H]1C(=O)N[C@@H](CO)C(=O)N[C@@H](CCCCN)C(N)=O)C(C)C` [Compound 182]: the EC50 is 100 to 1000 nM at GIP-R (setting [3]); 100 to 1000 nM on GIP-R (setting [4]); 0.1 to 1 nM at GLP-1R [1] (setting [5]); 0.1 to 1 nM on GLP-1R [1] (setting [6]); more than 1000 nM at GLP-1R [2] (setting [7]). Besides, the maximum response (Emax) at 1 µM worked out at 12% at GIP-R (read-out: (Emax) GIP-R at 1 μM, Table 3) and 12% on GIP-R (read-out: (Emax) GIP-R at 1 μM, Table 3A). For the same molecule, the Emax on GLP-1R [1] (Table 3) and on GLP-1R [1] (Table 3A) was 96% throughout.
With `CCCCCCCCCCCCCCCC(=O)N[C@@H](CCC(=O)NCCCC[C@H](NC(=O)[C@H](CO)NC(=O)[C@@H]1CCCN1C(=O)[C@@H]1CCCN1C(=O)[C@@H]1CCCN1C(=O)[C@H](C)NC(=O)CNC(=O)[C@H](CO)NC(=O)[C@H](CO)NC(=O)[C@@H]1CCCN1C(=O)CNC(=O)CNC(=O)[C@H](C)NC(=O)[C@H](CC(C)C)NC(=O)[C@H](CC(C)C)NC(=O)[C@H](Cc1c[nH]c2ccccc12)NC(=O)[C@H](CC(N)=O)NC(=O)[C@@H](NC(=O)[C@H](Cc1ccccc1)NC(=O)[C@H](CCC(=O)O)NC(=O)C(C)(C)NC(=O)[C@H](C)NC(=O)[C@H](C)NC(=O)[C@H](CCC(N)=O)NC(=O)[C@H](CCCCN)NC(=O)[C@H](CC(=O)O)NC(=O)[C@H](CCSC)NC(=O)[C@H](CCC(N)=O)NC(=O)[C@@H](NC(=O)[C@H](CO)NC(=O)[C@H](Cc1ccc(O)cc1)NC(=O)[C@H](CC(=O)O)NC(=O)[C@H](CO)NC(=O)[C@@H](NC(=O)[C@H](Cc1ccccc1)NC(=O)[C@@H](NC(=O)CNC(=O)[C@H](CCC(=O)O)NC(=O)CSCC(=O)NCCN1C(=O)CSC1=O)[C@@H](C)O)[C@@H](C)O)[C@@H](C)CC)C(C)C)C(N)=O)C(=O)O` [Compound 72] (X2-EGTFTSDYSIQMDKQAA[Aib]EFVNWLLAGGPSSGAPPPSK([γGlu-Palmitoyl])-NH2), the Emax at GIP-R (Table 3) stood at 87%; on GIP-R (Table 3A), 87%; at GLP-1R [1] (Table 3), 105%; at GLP-1R [1] (Table 3A), 105%. Moreover, the EC50 at GIP-R (setting [3]) is 0.1 to 1 nM; on GIP-R (setting [4]), 0.1 to 1 nM; on GLP-1R [1] (setting [5]), 0.1 to 1 nM; at GLP-1R [1] (setting [6]), 0.1 to 1 nM; on GLP-1R [2] (setting [7]), more than 1000 nM.

For the origin of these results see patent US20260176320A1, “MODULATORS OF G-PROTEIN COUPLED RECEPTORS” (priority 2018, published 2026).
